Test results as given in BindingDB's records for doi:10.1111/j.1747-0285.2007.00514.x (University of Maryland, 2007).

target: HIV-1 protease (Human immunodeficiency virus, UniProt O90783); assay: Inhibition Assay
Description: Inhibition assay using HIV protease and Sulfonamide compounds.

HIV-1 protease, sequence (O90783 whole entry): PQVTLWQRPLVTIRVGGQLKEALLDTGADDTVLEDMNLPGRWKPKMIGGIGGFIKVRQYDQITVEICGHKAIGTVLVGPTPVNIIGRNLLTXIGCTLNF

SMILES	Ki [nM]
COc1cc(C(=O)N[C@@H](Cc2ccccc2)[C@H](O)CN(C[C@H]2CCCO2)S(=O)(=O)c2cn(C)cn2)ccn1 [CARB-AC97]	910
CNC(=O)CCC(=O)N[C@@H](Cc1ccccc1)[C@H](O)CN(C[C@@H](C)O)S(=O)(=O)c1cccc(OC)c1 [CARB-KB32]	760
CNC(=O)CCC(=O)N[C@@H](Cc1ccccc1)[C@H](O)CN(C[C@@H](C)O)S(=O)(=O)c1ccco1 [CARB-KB49]	540

These reach a lower Ki. Values come first.

Ki [nM]	SMILES
110	COc1cccc(S(=O)(=O)N(CC2CCCO2)C[C@@H](O)[C@H](Cc2ccccc2)NC(=O)c2ccnc(OC)c2)c1 (stereo partly specified) [CARB-AD08]
260	C[C@@H](O)CN(C[C@@H](O)[C@H](Cc1ccccc1)NC(=O)CC1C=CCC1)S(=O)(=O)c1ccco1 (stereo partly specified) [CARB-KB51]
0.18	CC(=N[C@H]1c2ccccc2C[C@H]1O)[C@@H](Cc1ccccc1)C[C@H](O)CN1CCN(Cc2cccnc2)C[C@H]1C(=O)NC(C)(C)C [IDV]
